Experimental data reported in ChEMBL document CHEMBL1201862, “PubChem BioAssay data set” (2004).
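Where inhibition never reached the appropriate level, the endpoint shown equals the highest concentration tested. Otherwise, values were interpolated linearly from a five-concentration, 48-hour dose response in 96-well plates. The concentration for 50% growth inhibition is given as GI50.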 Calls of active or inactive are those of the source. Cut-off read from the data, not from the text of the source: active = GI50 up to about 1.1 µM and inactive = higher.

Columns and labels:
Assay in all cases: inhibition of tumour cell growth, NCI panel, 48 h
U-251 = system: U-251
LOX IMVI = system: LOX IMVI
K562 = system: K562
SK-MEL-28 = system: SK-MEL-28
A498 = system: A498
KM12 = system: KM12
OVCAR-3 = system: OVCAR-3
UACC-62 = system: UACC-62
SR = system: SR
M19-MEL = system: M19-MEL
SK-MEL-5 = system: SK-MEL-5
SN12C = system: SN12C
IGROV-1 = system: IGROV-1
EKVX = system: EKVX
RPMI-8226 = system: RPMI-8226
T47D = system: T47D
Hs-578T = system: Hs-578T
MDA-N = system: MDA-N
MDA-MB-435 = system: MDA-MB-435
BT-549 = system: BT-549

O=S(=O)(N/N=C/c1ccc(/C=N/NS(=O)(=O)c2ccccc2)cc1)c1ccccc1
GI50 (U-251): 41 µM (inactive) | GI50 (LOX IMVI): 16 µM (inactive) | GI50 (K562): 29.4 µM (inactive) | GI50 (SK-MEL-28): 81.7 µM (inactive) | GI50 (A498): 68.5 µM (inactive) | GI50 (KM12): 35.8 µM (inactive) | GI50 (OVCAR-3): 30.7 µM (inactive) | GI50 (UACC-62): 24.9 µM (inactive) | GI50 (SR): 29 µM (inactive) | GI50 (M19-MEL): 50.6 µM (inactive) | GI50 (SK-MEL-5): 39.4 µM (inactive) | GI50 (SN12C): 42.6 µM (inactive) | GI50 (IGROV-1): 37.9 µM (inactive) | GI50 (EKVX): 72.9 µM (inactive) | GI50 (RPMI-8226): 45 µM (inactive)

O=c1/c(=C/c2ccccc2O)sc2nc3ccccc3n12
GI50 (LOX IMVI): 35.5 µM (inactive) | GI50 (K562): 33.6 µM (inactive) | GI50 (SK-MEL-28): 23.6 µM (inactive) | GI50 (A498): 49.4 µM (inactive) | GI50 (OVCAR-3): 29.7 µM (inactive) | GI50 (UACC-62): 23.1 µM (inactive) | GI50 (SR): 27.4 µM (inactive) | GI50 (M19-MEL): 41.2 µM (inactive) | GI50 (SK-MEL-5): 30.7 µM (inactive) | GI50 (SN12C): 33.9 µM (inactive) | GI50 (IGROV-1): 16.9 µM (inactive) | GI50 (EKVX): 15.3 µM (inactive) | GI50 (RPMI-8226): 21.2 µM (inactive)

CCC(=O)C(C)C(=O)C(=O)C(=O)OC (stereo unspecified)
GI50 (U-251): > 47.3 µM (inactive) | GI50 (LOX IMVI): > 80.7 µM (inactive) | GI50 (K562): > 66.1 µM (inactive) | GI50 (SK-MEL-28): > 100 µM (inactive) | GI50 (A498): > 100 µM (inactive) | GI50 (KM12): > 100 µM (inactive) | GI50 (OVCAR-3): > 100 µM (inactive) | GI50 (UACC-62): > 100 µM (inactive) | GI50 (SR): > 100 µM (inactive) | GI50 (M19-MEL): > 100 µM (inactive) | GI50 (SK-MEL-5): > 100 µM (inactive) | GI50 (SN12C): > 100 µM (inactive) | GI50 (IGROV-1): > 100 µM (inactive) | GI50 (EKVX): > 100 µM (inactive) | GI50 (RPMI-8226): > 100 µM (inactive)

COc1nc2c(nc(N)n2C2OCC(O)C(O)C2O)c(=O)n1C (stereo unspecified)
GI50 (U-251): > 100 µM (inactive) | GI50 (LOX IMVI): > 100 µM (inactive) | GI50 (K562): > 100 µM (inactive) | GI50 (SK-MEL-28): > 100 µM (inactive) | GI50 (A498): > 100 µM (inactive) | GI50 (KM12): > 100 µM (inactive) | GI50 (OVCAR-3): > 100 µM (inactive) | GI50 (UACC-62): > 100 µM (inactive) | GI50 (SR): > 100 µM (inactive) | GI50 (M19-MEL): > 100 µM (inactive) | GI50 (SK-MEL-5): > 100 µM (inactive) | GI50 (SN12C): > 100 µM (inactive) | GI50 (IGROV-1): > 100 µM (inactive) | GI50 (EKVX): > 100 µM (inactive)

CCCOc1ccc(/C(Cl)=C(\C=O)c2ccc(OC)c(OC)c2)cc1OCCC
GI50 (U-251): 5.73 µM (inactive) | GI50 (LOX IMVI): 10.5 µM (inactive) | GI50 (K562): 6.1 µM (inactive) | GI50 (SK-MEL-28): 7.59 µM (inactive) | GI50 (A498): 12.3 µM (inactive) | GI50 (KM12): 8.61 µM (inactive) | GI50 (OVCAR-3): 23.9 µM (inactive) | GI50 (UACC-62): 3.52 µM (inactive) | GI50 (SR): 2.52 µM (inactive) | GI50 (M19-MEL): 10.5 µM (inactive) | GI50 (SK-MEL-5): 10 µM (inactive) | GI50 (SN12C): 9.89 µM (inactive) | GI50 (IGROV-1): 27.9 µM (inactive) | GI50 (EKVX): 10.9 µM (inactive) | GI50 (RPMI-8226): 2.7 µM (inactive)

COC1C(OC(=O)/C=C/C=C/C=C/C=C/C(=O)O)CCC2(CO2)C1C1(C)OC1CC=C(C)C (stereo unspecified)
GI50 (T47D): 18.4 µM (inactive) | GI50 (U-251): 18.5 µM (inactive) | GI50 (LOX IMVI): 17.4 µM (inactive) | GI50 (K562): 21.1 µM (inactive) | GI50 (SK-MEL-28): 18.2 µM (inactive) | GI50 (A498): > 100 µM (inactive) | GI50 (KM12): 12.4 µM (inactive) | GI50 (OVCAR-3): 29.2 µM (inactive) | GI50 (Hs-578T): 40.2 µM (inactive) | GI50 (UACC-62): 16.1 µM (inactive) | GI50 (MDA-N): 20.5 µM (inactive) | GI50 (SR): 20.6 µM (inactive) | GI50 (M19-MEL): 18.7 µM (inactive) | GI50 (SK-MEL-5): 18.5 µM (inactive) | GI50 (MDA-MB-435): 14.6 µM (inactive) | GI50 (BT-549): 21.6 µM (inactive) | GI50 (SN12C): 28.1 µM (inactive) | GI50 (IGROV-1): 46.3 µM (inactive) | GI50 (EKVX): 27.2 µM (inactive) | GI50 (RPMI-8226): 20.1 µM (inactive)

COC(=O)CCSC(=O)Nc1ccc(/N=N/c2ccccc2)cc1
GI50 (U-251): 37.5 µM (inactive) | GI50 (LOX IMVI): 40.5 µM (inactive) | GI50 (K562): 45.8 µM (inactive) | GI50 (SK-MEL-28): > 100 µM (inactive) | GI50 (A498): 29.5 µM (inactive) | GI50 (KM12): 31.1 µM (inactive) | GI50 (OVCAR-3): 29.5 µM (inactive) | GI50 (UACC-62): 34.4 µM (inactive) | GI50 (SR): 30.6 µM (inactive) | GI50 (M19-MEL): 45.4 µM (inactive) | GI50 (SK-MEL-5): 51.9 µM (inactive) | GI50 (SN12C): 69 µM (inactive) | GI50 (IGROV-1): 56.9 µM (inactive) | GI50 (EKVX): 39.5 µM (inactive) | GI50 (RPMI-8226): 49.1 µM (inactive)

Brc1ccc2ns[s+]c2c1
GI50 (U-251): 16 µM (inactive) | GI50 (LOX IMVI): 0.659 µM (active) | GI50 (K562): 0.321 µM (active) | GI50 (SK-MEL-28): 11.9 µM (inactive) | GI50 (A498): > 100 µM (inactive) | GI50 (KM12): 3.79 µM (inactive) | GI50 (OVCAR-3): 29.1 µM (inactive) | GI50 (UACC-62): 0.446 µM (active) | GI50 (SR): 4.36 µM (inactive) | GI50 (M19-MEL): 6.24 µM (inactive) | GI50 (SN12C): 14 µM (inactive) | GI50 (IGROV-1): 26.7 µM (inactive) | GI50 (EKVX): 13 µM (inactive) | GI50 (RPMI-8226): 4.71 µM (inactive)

CC1(C)OC2C(=O)OC(COCc3ccccc3)C2O1 (stereo unspecified)
GI50 (U-251): > 100 µM (inactive) | GI50 (LOX IMVI): > 100 µM (inactive) | GI50 (K562): > 100 µM (inactive) | GI50 (SK-MEL-28): > 100 µM (inactive) | GI50 (A498): > 100 µM (inactive) | GI50 (KM12): > 100 µM (inactive) | GI50 (OVCAR-3): > 100 µM (inactive) | GI50 (UACC-62): > 100 µM (inactive) | GI50 (SR): 78.9 µM (inactive) | GI50 (M19-MEL): > 100 µM (inactive) | GI50 (SK-MEL-5): > 100 µM (inactive) | GI50 (SN12C): > 100 µM (inactive) | GI50 (IGROV-1): > 100 µM (inactive) | GI50 (EKVX): > 100 µM (inactive) | GI50 (RPMI-8226): > 100 µM (inactive)
